Literature values in paper PMC8162882 (Chemical Science, 2020).

Conditions: as toxic as the natural product

Substance: amanin
- Toxicity relative to the natural product (6′-OH replaced by H): 25–50%

Substance: amaninamide
- Toxicity relative to the natural product (6′-OH replaced by H): 25–50%
